Measured values: EP4745134A1 (Jiangsu Yahong Meditech Co., Ltd., priority 2023, dated 2025)
pIC50: −log10 of the molar value. Where two headings read alike, the source gives them in different places.

Tests used:
[1] = biological target: PRMT5-MTA (Homo sapiens, UniProt O14744); experiment: Enzymatic inhibitory activity against PRMT5-MTA (AlphaScreen); assay type: biochemical
Outline: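 PRMT5/[…] (1 nM) was preincubated for 30 min at room temperature with 1 µM […] and 2.5 µM SAM, then exposed to compound (10-point, 3-fold from 1000 nM) for 15 min at 23 °C. Histone H4 substrate (5 nM) was added and reacted for 45 min at 23 °C. Symmetric dimethyl-R3 H4 was detected by AlphaScreen and IC50 calculated.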

[2] = system: HCT116-WT cells; experiment: Inhibitory activity against cell proliferation (CellTiter Glo, 6 days), HCT116-WT; assay type: cell-based; conditions: 144 h, HCT116-WT cells, 6 days, CellTiter Glo; read-out: HCT116-WT IC50
Outline: (§1)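 Cells were seeded at 250 per well in McCoy's 5A with 10% FBS and left overnight at 37°C, 5% CO2. Compounds were added as 8-point, 4-fold dilutions from 10000 nM, with DMSO-only controls, for 6 days. IC50 values came from CellTiter Glo luminescence.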

[3] = system: HCT116 MTAP KO cells; experiment: Inhibitory activity against cell proliferation (CellTiter Glo, 6 days), HCT116 MTAP KO; assay type: cell-based; conditions: for pIC50: Homo sapiens, HCT-116, 144 h, HCT116 MTAP KO cells, 6 days, CellTiter Glo, read-out: HCT116 MTAP KO IC50; for Selectivity HCT 116-WT/ HCT116 MTAP KO: ratio of IC50 HCT116-WT / HCT116 MTAP KO
Outline: as §1

Sequence of PRMT5-MTA (O14744 whole entry): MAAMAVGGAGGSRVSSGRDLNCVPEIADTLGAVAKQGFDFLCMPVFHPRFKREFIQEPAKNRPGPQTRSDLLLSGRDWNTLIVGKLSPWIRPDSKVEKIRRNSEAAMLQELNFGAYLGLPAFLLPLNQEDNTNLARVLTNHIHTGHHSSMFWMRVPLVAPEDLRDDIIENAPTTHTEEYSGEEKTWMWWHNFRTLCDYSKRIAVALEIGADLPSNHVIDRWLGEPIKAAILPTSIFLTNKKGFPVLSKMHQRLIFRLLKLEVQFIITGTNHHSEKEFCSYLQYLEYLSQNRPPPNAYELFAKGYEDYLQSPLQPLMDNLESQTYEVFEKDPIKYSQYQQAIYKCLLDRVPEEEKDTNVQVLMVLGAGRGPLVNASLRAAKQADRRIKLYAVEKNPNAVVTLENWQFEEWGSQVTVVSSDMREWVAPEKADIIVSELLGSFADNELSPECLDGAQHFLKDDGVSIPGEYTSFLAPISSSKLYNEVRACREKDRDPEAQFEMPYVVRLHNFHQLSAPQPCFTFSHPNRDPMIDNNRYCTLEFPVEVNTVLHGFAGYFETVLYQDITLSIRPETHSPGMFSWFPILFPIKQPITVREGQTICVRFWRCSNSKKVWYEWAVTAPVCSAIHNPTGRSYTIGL
Sequence of PRMT5-MTA (Q9BQA1 whole entry partner): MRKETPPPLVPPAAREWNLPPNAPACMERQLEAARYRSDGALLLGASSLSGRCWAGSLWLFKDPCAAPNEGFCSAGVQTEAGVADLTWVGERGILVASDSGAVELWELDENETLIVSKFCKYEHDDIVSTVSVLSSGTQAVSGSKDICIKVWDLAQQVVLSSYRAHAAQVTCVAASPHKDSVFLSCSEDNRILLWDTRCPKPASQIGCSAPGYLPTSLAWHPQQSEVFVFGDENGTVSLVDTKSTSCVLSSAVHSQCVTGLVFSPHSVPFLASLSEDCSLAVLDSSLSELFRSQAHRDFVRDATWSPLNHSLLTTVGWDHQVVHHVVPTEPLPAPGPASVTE

SMILES: [2H]C([2H])([2H])c1cc2cc(C(=O)N(Cc3ccc(C(F)(F)F)cn3)N(c3ncccn3)C3CC3)ccc2nc1N [Example 314, 2-amino-N'-cyclopropyl-3-(methyl-D3)-N'-(pyrimidin-2-yl)-N-((5-(trifluoromethyl)pyridin-2-yl)methyl)quinoline-6-carbo hydrazide]
- pIC50 ([1]; read-out: IC50): 8.33
- pIC50 [2]: 6.55
- pIC50 [3]: 7.92
- Selectivity HCT 116-WT/ HCT116 MTAP KO [3]: 23.58

SMILES: COc1ncc(F)cc1-c1ccc(CN(C(=O)c2ccc3nc(N)c(C)cc3c2)N(C)c2ncccn2)nc1 [Example 161, 2-amino-N-((5'-fluoro-2'-methoxy-[3,3'-bipyridine]-6-yl)methyl)-N',3-dimethyl-N'-(pyrimidin-2-yl)quinoline-6-carbohydrazide]
- pIC50 ([1]; read-out: IC50): 8.77
- pIC50 [2]: 5.75
- pIC50 [3]: 7.06
- Selectivity HCT 116-WT/ HCT116 MTAP KO [3]: 20.48

SMILES: Cc1cc2cc(C(=O)N(Cc3ccc(-c4scnc4CF)cn3)N(C)c3ncccn3)ccc2nc1N [Example 242, 2-amino-N-((5-(4-(fluoromethyl)thiazol-5-yl)pyridin-2-yl)methyl)-N',3-dimethyl-N'-(pyrimidin-2-yl)quinoline-6-carbohydrazide]
- pIC50 ([1]; read-out: IC50): 8.23
- pIC50 [2]: 6.63
- pIC50 [3]: 8.08
- Selectivity HCT 116-WT/ HCT116 MTAP KO [3]: 27.98

SMILES: Cc1cc2cc(C(=O)N(Cc3ccc(-c4cncs4)cn3)N(c3ncccn3)C3CC3)ccc2nc1N [Example 215, 2-amino-N'-cyclopropyl-3-methyl-N'-(pyrimidin-2-yl)-N-((5-(thiazol-5-yl)pyridin-2-yl)methyl)quinoline-6-carbohydrazide]
- pIC50 ([1]; read-out: IC50): 8.28
- pIC50 [2]: 6.75
- pIC50 [3]: 8.15
- Selectivity HCT 116-WT/ HCT116 MTAP KO [3]: 25.07

SMILES: Cc1ccc(-c2ccc(CN(C(=O)c3ccc4nc(N)c(C)cc4c3)N(C)c3ncccn3)nc2)cn1 [Example 160, 2-amino-N',3-dimethyl-N-((6'-methyl-[3, 3'-bipyridine]-6-yl)methyl)-N'-(pyrimidin-2-yl)quinoline-6-carbohydrazide]
- pIC50 ([1]; read-out: IC50): 8.70
- pIC50 [2]: 6.24
- pIC50 [3]: 7.57
- Selectivity HCT 116-WT/ HCT116 MTAP KO [3]: 21.48

SMILES: Cc1cc2cc(C(=O)N(Cc3ccc(C(F)(F)F)cn3)N(C)c3nccc4nccnc34)ccc2nc1N [Example 107, 2-amino-N',3-dimethyl-N'-(pyrido[3,4-b]pyrazin-5-yl)-N-((5-(trifluoromethyl)pyridin-2-yl)methyl)quinoline-6-carbohydrazide]
- pIC50 ([1]; read-out: IC50): 8.60
- pIC50 [2]: 5.79
- pIC50 [3]: 7.34
- Selectivity HCT 116-WT/ HCT116 MTAP KO [3]: 35.15

SMILES: Cc1cc2cc(C(=O)N(Cc3ccc(C4CCOC4)cn3)N(C)c3ncccn3)ccc2nc1N (stereo not shown) [Example 217, 2-amino-N',3-dimethyl-N'-(pyrimidin-2-yl)-N-((5-(tetrahydrofuran-3-yl)pyridin-2-yl)methyl)quinoline-6-carbohydrazide]
- pIC50 ([1]; read-out: IC50): 8.54
- pIC50 [2]: 5.53
- pIC50 [3]: 7.15
- Selectivity HCT 116-WT/ HCT116 MTAP KO [3]: 42.11

SMILES: Cc1cc2nc(N)c3cnn(C)c3c2cc1C(=O)N1CC(OCC(F)(F)F)CN1c1ncccc1F (stereo not shown) [Example 452, (4-amino-1,7-dimethyl-1H-pyrazolo[4,3-c]quinolin-8-yl)(2-(3-fluoropyridin-2-yl)-4-(2,2,2-trifluoroethoxy)pyrazolidin-1-yl) methanone]
- pIC50 ([1]; read-out: IC50): 8.14
- pIC50 [2]: 5.85
- pIC50 [3]: 7.35
- Selectivity HCT 116-WT/ HCT116 MTAP KO [3]: 31.67

SMILES: Cc1cc2cc(C(=O)N(Cc3ccc(C(F)(F)F)cn3)N(C)c3nccc4ccsc34)ccc2nc1N [Example 274, 2-amino-N',3-dimethyl-N'-(thieno[2,3-c]pyridin-7-yl)-N-((5-(trifluoromethyl)pyridin-2-yl)methyl)quinoline-6-carbohydrazide]
- pIC50 ([1]; read-out: IC50): 8.43
- pIC50 [2]: 5.60
- pIC50 [3]: 6.78
- Selectivity HCT 116-WT/ HCT116 MTAP KO [3]: 15.10

SMILES: COC1CN(C(=O)c2cc3c(cc2C)nc(N)c2cnn(C)c23)N(c2ncccc2F)C1 (stereo not shown) [Example 417, (4-amino-1,7-dimethyl-1H-pyrazolo[4,3-c]quinolin-8-yl)(2-(3-fluoropyridin-2-yl)-4-methoxypyrazolidin-1-yl)methanone]
- pIC50 ([1]; read-out: IC50): 8.42
- pIC50 [2]: 6.10
- pIC50 [3]: 7.70
- Selectivity HCT 116-WT/ HCT116 MTAP KO [3]: 39.50

SMILES: Cc1cc2nc(N)c3cnn(C)c3c2cc1C(=O)N1CC(C)CN1c1cc(F)ccn1 (stereo not shown) [Example 372, (4-amino-1,7-dimethyl-1H-pyrazolo[4,3-c]quinolin-8-yl)(2-(4-fluoropyridin-2-yl)-4-methylpyrazolidin-1-yl)methanone]
- pIC50 ([1]; read-out: IC50): 8.47
- pIC50 [2]: 5.60
- pIC50 [3]: 7.08
- Selectivity HCT 116-WT/ HCT116 MTAP KO [3]: 30.42

SMILES: [2H]C([2H])([2H])n1ncc2c(N)nc3cc(Cl)c(C(=O)N4CC(C)CN4c4ncccc4F)cc3c21 (stereo not shown) [Compound 508, (4-amino-7-chloro-1-(methyl-D3)-1H-pyrazolo[4,3-c]quinolin-8-yl)(2-(3-fluoropyridin-2-yl)-4-methylpyrazolidin-1-yl)meth anone]
- pIC50 ([1]; read-out: IC50): 7.78
- pIC50 [2]: 5.57
- pIC50 [3]: 6.94
- Selectivity HCT 116-WT/ HCT116 MTAP KO [3]: 23.78

SMILES: C=C1CN(C(=O)c2cc3c(cc2Cl)nc(N)c2cnn(C)c23)N(c2ncc(Cl)cc2F)C1 [Example 434, (4-amino-7-chloro-1-methyl-1H-pyrazolo [4,3-c]quinolin-8-yl)(2-(5-chloro-3-fluoropyridin-2-yl)-4-methylenepyrazolidin-1-y 1)methanone]
- pIC50 ([1]; read-out: IC50): 8.21
- pIC50 [2]: 6.04
- pIC50 [3]: 7.44
- Selectivity HCT 116-WT/ HCT116 MTAP KO [3]: 25.17

SMILES: Cc1cc2nc(N)c3cnn(C)c3c2cc1C(=O)N1CCCN1c1ccc(C(F)(F)F)cc1 [Example 377, (4-amino-1,7-dimethyl-1H-pyrazolo[4,3-c]quinolin-8-yl)(2-(4-(trifluoromethyl)phenyl)pyrazolidin-1-yl)methanone]
- pIC50 ([1]; read-out: IC50): 8.51
- pIC50 [2]: 5.37
- pIC50 [3]: 6.51
- Selectivity HCT 116-WT/ HCT116 MTAP KO [3]: 13.85

SMILES: Cn1ncc2c(N)nc3cc(Cl)c(C(=O)N4CC5(CN4c4ncccc4F)CC(F)(F)C5)cc3c21 [Example 411, (4-amino-7-chloro-1-methyl-1H-pyrazolo [4,3-c]quinolin-8-yl)(2,2-difluoro-7-(3-fluoropyridin-2-yl)-6,7-diazaspiro[3.4]octan-6-yl)methanone]
- pIC50 ([1]; read-out: IC50): 8.20
- pIC50 [2]: 6.66
- pIC50 [3]: 7.82
- Selectivity HCT 116-WT/ HCT116 MTAP KO [3]: 14.73

SMILES: Cc1cc2cc(C(=O)N(Cc3ccc(C(F)(F)F)cn3)N(C)c3ncc4ccsc4n3)ccc2nc1N [Example 92, 2-amino-N',3-dimethyl-N'-(thieno[2,3-d]pyrimidin-2-yl)-N-((5-(trifluoromethyl)pyridin-2-yl)methyl)quinoline-6-carbohydrazide]
- pIC50 ([1]; read-out: IC50): 8.68
- pIC50 [2]: 6.24
- pIC50 [3]: 7.72
- Selectivity HCT 116-WT/ HCT116 MTAP KO [3]: 29.95

SMILES: [2H]C([2H])([2H])N(c1nccc2nccnc12)N(Cc1ccc(Br)cn1)C(=O)c1ccc2nc(N)c(C)cc2c1 [Example 63, 2-amino-N-((5-bromopyridin-2-yl)methyl)-3-methyl-N'-(methyl-d3)-N'-(pyrido[3,4-b]pyrazin-5-yl)quinoline-6-carbohydrazide]
- pIC50 ([1]; read-out: IC50): 8.49
- pIC50 [2]: 6.00
- pIC50 [3]: 7.28
- Selectivity HCT 116-WT/ HCT116 MTAP KO [3]: 19.02

SMILES: Cc1cc2nc(N)c3cnn(C)c3c2cc1C(=O)N1C(C)CCN1c1ncc(Br)cc1F (stereo not shown) [Example 391, (4-amino-1,7-dimethyl-1H-pyrazolo[4,3-c]quinolin-8-yl)(2-(5-bromo-3-fluoropyridin-2-yl)-5-methylpyrazolidin-1-yl)metha none]
- pIC50 ([1]; read-out: IC50): 8.13
- pIC50 [2]: 5.55
- pIC50 [3]: 7.08
- Selectivity HCT 116-WT/ HCT116 MTAP KO [3]: 33.94

SMILES: CN(C(=O)c1cc2c(cc1F)nc(N)c1cnn(C)c12)N1CCc2nc(Br)ccc21 [Example 32, 4-amino-N-(5-bromo-2,3-dihydro-1H-pyrrolo[3,2-b]pyridin-1-yl)-7-fluoro-N,1-dimethy 1-1H-pyrazolo[4,3-c]quinoline-8-carboxamide]
- pIC50 [1]: 8.60
- pIC50 [2]: 5.44
- pIC50 [3]: 6.91
- Selectivity HCT 116-WT/ HCT116 MTAP KO [3]: 29.85

SMILES: C=C1CN(C(=O)c2cc3c(cc2Cl)nc(N)c2cnn(C)c23)N(c2ncc(F)cc2F)C1 [Example 432, (4-amino-7-chloro-1-methyl-1H-pyrazolo [4,3-c]quinolin-8-yl)(2-(3,5-2 fluoropyridin-2-yl)-4-methylenepyrazolidin-1-yl)methanone]
- pIC50 ([1]; read-out: IC50): 8.35
- pIC50 [2]: 6.18
- pIC50 [3]: 7.80
- Selectivity HCT 116-WT/ HCT116 MTAP KO [3]: 41.06

SMILES: [2H]C([2H])([2H])c1cc2cc(C(=O)N(Cc3ccc(-c4scnc4C)cn3)N(c3ncccn3)C3CC3)ccc2nc1N [Example 316, 2-amino-N'-cyclopropyl-3-(methyl-D3)-N-((5-(4-methylthiazol-5-yl)pyridin-2-yl)methyl)-N'-(pyrimidin-2-yl)quinoline-6-c arbohydrazide]
- pIC50 ([1]; read-out: IC50): 8.17
- pIC50 [2]: 6.67
- pIC50 [3]: 7.96
- Selectivity HCT 116-WT/ HCT116 MTAP KO [3]: 19.55

SMILES: Cc1cc2cc(C(=O)N(Cc3ccc(-c4ccc(N)nc4)cn3)N(C)c3ncccn3)ccc2nc1N [Example 144, 2-amino-N-((6'-amino-[3,3'-bipyridine]-6-yl)methyl)-N',3-dimethyl-N'-(pyrimidin-2-yl)quinoline-6-carbohydrazide]
- pIC50 ([1]; read-out: IC50): 8.82
- pIC50 [2]: 6.21
- pIC50 [3]: 7.59
- Selectivity HCT 116-WT/ HCT116 MTAP KO [3]: 23.69
